Results as given in ChEMBL document CHEMBL3301361, “Experimental in vitro DMPK and physicochemical data on a set of publicly disclosed compounds”.
In brackets after ≈: the same amount, converted by molar mass.

Assays:
[1] = human, plasma, 5 h
in vitro [2] = details: human
in vitro [3] = details: SD, HW or BN, rat, plasma
in vitro [4] = details: Beagle, dog, plasma
[5] = CD1, BC, CD1, NMRI, SCID, or Nd, rat, hepatocytes
physchem [6] = details: octan-1-ol/water, pH 7.4, LogD7.4
in vitro [7] = details: human, plasma, PPB
physchem [8] = experiment: physchem
physchem [9] = experiment: physchem; remark: listed apart in the source
in vitro [10] = details: hepatocytes
physchem [11] = details: pH 7.4 buffer
physchem [12] = experiment: physchem; remark: listed apart in the source
physchem [13] = experiment: physchem; remark: listed apart in the source
[14] = ASTRAZENECA: Third most basic pKa value (pKa B3) determined by absorption and potentiometric titration using standard methodology from Sirius Analytical. Experimental range Bases: >= 2.; type: physicochemical; details: read-out: pKa_B3
[15] = rat, plasma, 5 h
in vitro [16] = details: Dunkin Hartley, guinea pig, plasma
in vitro [17] = details: human, hepatocytes
in vitro [18] = details: mouse, plasma
[19] = dog, plasma, 5 h

Nc1nc2ccc(OC(F)(F)F)cc2s1 [RILUZOLE]
PPB [1]: 97.13%

O=C(O)C[C@H](O)C[C@H](O)/C=C/c1c(C2CC2)nc2ccccc2c1-c1ccc(F)cc1 [PITAVASTATIN]
microsomal CLint (in vitro [2]; microsomes): < 3 µL/min/mg | fraction unbound at 5 h (in vitro [3]): 0.0064 | fraction unbound at 5 h (in vitro [4]): 0.0293 | CLint [5]: 7.11 microL/min/1E6 cells | logD (physchem [6]): 0.91 | fraction unbound at 5 h (in vitro [7]): 0.02

CCCCNc1cc(C(=O)O)cc(S(N)(=O)=O)c1Oc1ccccc1 [BUMETANIDE]
microsomal CLint (in vitro [2]; microsomes): 4 µL/min/mg | fraction unbound at 5 h (in vitro [3]): 0.0366 | pKa (physchem [8]): 6.07 | pKa (physchem [9]): 9.73 | hepatocyte CLint (in vitro [10]): 145 µL/min/1e6 cells | solubility thermodynamic (physchem [11]): 1450 µM (≈ 527 µg/mL) | pKa (physchem [12]): 3.49 | logD (physchem [6]): -0.3 | fraction unbound at 5 h (in vitro [7]): 0.0156

COc1cc2nc(-c3ccc(N4CCN(C)CC4)cc3)nc(NCCN3CCOCC3)c2cc1OC
pKa (physchem [8]): 7.93 | pKa (physchem [13]): 6.78 | pKa [14]: 5.6

Cc1ccc(S(=O)(=O)Nc2c(C(=O)N[C@@H](C)C(C)(C)C)c(C)nn2-c2ccccc2)cc1
fraction unbound at 5 h (in vitro [4]): 0.0321 | solubility thermodynamic (physchem [11]): 1020 µM (≈ 465 µg/mL) | PPB [15]: 95.82% | PPB [1]: 98.89% | fraction unbound at 5 h (in vitro [16]): 0.0818 | logD (physchem [6]): 1.44

Cc1ccc(-c2cc(C(F)(F)F)nn2-c2ccc(S(N)(=O)=O)cc2)cc1 [CELECOXIB]
hepatocyte CLint (in vitro [17]): 25.7 µL/min/1e6 cells | solubility thermodynamic (physchem [11]): 2.2 µM (≈ 0.839 µg/mL) | PPB [1]: 98.94% | logD (physchem [6]): 3.42

O=C(NCCc1ccccc1Cl)c1cc(-n2ncc(=O)[nH]c2=O)ccc1Cl
fraction unbound at 5 h (in vitro [3]): 0.0224 | hepatocyte CLint (in vitro [10]): 8 µL/min/1e6 cells | pKa (physchem [12]): 6.1 | PPB [1]: 97.2% | logD (physchem [6]): 1.29

CSc1ccc2c(c1)N(CCC1CCCCN1C)c1ccccc1S2 (stereo unspecified) [THIORIDAZINE]
microsomal CLint (in vitro [2]; microsomes): 50 µL/min/mg | hepatocyte CLint (in vitro [10]): 114 µL/min/1e6 cells | PPB [15]: 99.3% | logD (physchem [6]): 3.76 | fraction unbound at 5 h (in vitro [7]): 0.0037

COCCCC/C(=N\OCCN)c1ccc(C(F)(F)F)cc1 [FLUVOXAMINE]
PPB [1]: 75.55%

Cc1ccc(-c2ccc3c(ccc4sc5c(c43)NC[C@@H](C)NC5=O)n2)cn1
PPB [15]: 98.86% | fraction unbound at 5 h (in vitro [18]): 0.0229 | logD (physchem [6]): 3.6 | fraction unbound at 5 h (in vitro [7]): 0.151

Oc1nc(-c2ccc(C(F)(F)F)cc2)nc2c1CSCC2
PPB [1]: 97.6%

CCOc1ccc(-c2ccc(Cn3c(CC(C)(C)C(=O)O)c(SC(C)(C)C)c4cc(OCc5ccc(C)cn5)ccc43)cc2)cn1 [FIBOFLAPON]
microsomal CLint (in vitro [2]; liver microsomes): 9.77 µL/min/mg | PPB [19]: 99.92% | hepatocyte CLint (in vitro [10]): 6.92 µL/min/1e6 cells

COc1ccc([C@@H]2Sc3ccccc3N(CCN(C)C)C(=O)[C@@H]2OC(C)=O)cc1 [DILTIAZEM]
microsomal CLint (in vitro [2]; liver microsomes): 43.6 µL/min/mg | fraction unbound at 5 h (in vitro [4]): 0.349 | pKa (physchem [8]): 8.08 | hepatocyte CLint (in vitro [17]): 9.33 µL/min/1e6 cells | hepatocyte CLint (in vitro [10]): > 150 µL/min/1e6 cells | PPB [1]: 75.97% | logD (physchem [6]): 1.99

NCCc1ccc(O)c2nc(O)ccc12
pKa (physchem [8]): 7.7 | pKa (physchem [9]): 10.2 | pKa (physchem [12]): 7.6

CCc1nc2cc(O)ccc2c(Oc2ccc(/C=C/C(=O)O)cc2)c1-c1ccccc1
pKa (physchem [8]): 5.51 | pKa (physchem [9]): 7.81 | pKa (physchem [12]): 4.34 | logD (physchem [6]): 3 | fraction unbound at 5 h (in vitro [7]): 0.0056

COc1ccc([C@@H]2Sc3ccccc3N(CCN(C)C)C(=O)[C@@H]2OC(C)=O)cc1.Cl [DILTIAZEM HYDROCHLORIDE]
PPB [1]: 35.46%

CON=C(C(=O)N[C@@H]1C(=O)N2C(C(=O)O)=C(COC(C)=O)CS[C@H]12)c1csc(N)n1
pKa (physchem [8]): 2 | pKa (physchem [9]): 9.43 | pKa (physchem [12]): 3.35

Cc1ccc(C(=O)N(CCCN)[C@@H](c2nc3cc(Cl)ccc3c(=O)n2Cc2ccccc2)C(C)C)cc1 [ISPINESIB]
PPB [1]: 99.4%

COc1cc(-n2cnc3cc(-c4ccc(Cl)cc4)sc3c2=O)ccc1OC[C@H](O)C1CC1
fraction unbound at 5 h (in vitro [4]): 0.0014 | hepatocyte CLint (in vitro [10]): 9.77 µL/min/1e6 cells | PPB [15]: 98.81% | fraction unbound at 5 h (in vitro [18]): 0.0018 | fraction unbound at 5 h (in vitro [7]): 0.0021

O=C(Nc1c(Cl)cncc1Cl)c1ccc(OC(F)F)c(OCC2CC2)c1 [ROFLUMILAST]
microsomal CLint (in vitro [2]; microsomes): 5 µL/min/mg | fraction unbound at 5 h (in vitro [3]): 0.0114 | hepatocyte CLint (in vitro [10]): > 150 µL/min/1e6 cells | solubility thermodynamic (physchem [11]): 1.1 µM (≈ 0.444 µg/mL) | PPB [1]: 99.5% | logD (physchem [6]): 3.95

OCCN1CCN(CCCN2c3ccccc3Sc3ccc(Cl)cc32)CC1 [PERPHENAZINE]
fraction unbound at 5 h (in vitro [3]): 0.0146 | PPB [1]: 98.51%

CC1(C)[C@H](NC(=O)/C(=N\OCc2cc(=O)c(O)cn2O)c2csc(N)n2)C(=O)N1OS(=O)(=O)O
fraction unbound at 5 h (in vitro [3]): 0.124 | PPB [1]: 69.12%

O=C(NC[C@H]1CN(c2ccc(N3CCOCC3=O)cc2)C(=O)O1)c1ccc(Cl)s1 [RIVAROXABAN]
PPB [15]: 94.56%

Fc1cccc(COc2ccc(Nc3ncnc4ccc(-c5cccc(N6CCOCC6)c5)cc34)cc2Cl)c1
microsomal CLint (in vitro [2]; microsomes): 63.1 µL/min/mg | CLint [5]: 44.67 microL/min/1E6 cells | logD (physchem [6]): 3.2

O=C(NCc1cccnc1OCC(F)(F)F)c1cncc(-c2ccc(Cl)cc2)c1
PPB [15]: 99.87%

N#Cc1cc(-c2n[nH]c(-c3ccncc3)n2)ccn1 [TOPIROXOSTAT]
microsomal CLint (in vitro [2]; liver microsomes): 5 µL/min/mg | hepatocyte CLint (in vitro [10]): < 3 µL/min/1e6 cells | PPB [1]: 84.9%

CN(C)CCNc1cc(-c2ccc(N3CCN(C)CC3)cc2)nc2ccccc12
pKa (physchem [8]): 8.94 | pKa (physchem [13]): 7.96 | pKa [14]: 7.31

O=C(c1ccc(OCCN2CCCCC2)cc1)c1c(-c2ccc(O)cc2)sc2cc(O)ccc12 [RALOXIFENE]
microsomal CLint (in vitro [2]; liver microsomes): 21 µL/min/mg | fraction unbound at 5 h (in vitro [4]): 0.0057 | hepatocyte CLint (in vitro [10]): 30 µL/min/1e6 cells | solubility thermodynamic (physchem [11]): 9.1 µM (≈ 4.31 µg/mL) | PPB ([15]; SD, HW or BN): 99.5% | logD (physchem [6]): 4.13 | fraction unbound at 5 h (in vitro [7]): 0.005
